Test results reported in patent publication US20090047246A1, “NOVEL INHIBITORS OF HEPATITIS C VIRUS REPLICATION” (InterMune, Inc., priority 2007, published 2009).
Where two headings read alike, the source gives them in different places.

Biological target: T1, HCV NS3 helicase (Hepatitis C virus genotype 1b, UniProt P26663)
T1 construct: full-length NS3 (1-631), purified at Array BioPharma
Test: HCV Helicase Prompt FRET Assay (Example A)
Type: biochemical
Conditions: read-out: IC50 Activity
In short: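 Full-length NS3 (1-631), 5 or 6 nM, preincubated 5 min with compound, then unwinds 50 nM FAM/BHQ-1 duplex substrate with 250 nM capture strand and 300 μM ATP in 25 mM MOPS pH 7.0, 1.5 mM MgCl2, 0.005% Triton X-100, 2% DMSO. Fluorescence (485/535 nm) followed ~30 min at room temperature; IC50 from initial rates by 4- or 5-parameter fit.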

[1] = HCV NS3 helicase, tables do not say whether Example A or Example B assay
[2] = Table 33, compounds made using Scheme 50
[3] = Table 34, compounds made using Schemes 51-52
[4] = Table 36, compounds made using Scheme 54
[5] = Table 21, compounds made using Scheme 28
[6] = Table 25, compounds made using Scheme 32
[7] = Table 31, compounds made using Schemes 38-45
[8] = Table 37, compounds made using Scheme 55

T1 sequence (P26663 1027-1657): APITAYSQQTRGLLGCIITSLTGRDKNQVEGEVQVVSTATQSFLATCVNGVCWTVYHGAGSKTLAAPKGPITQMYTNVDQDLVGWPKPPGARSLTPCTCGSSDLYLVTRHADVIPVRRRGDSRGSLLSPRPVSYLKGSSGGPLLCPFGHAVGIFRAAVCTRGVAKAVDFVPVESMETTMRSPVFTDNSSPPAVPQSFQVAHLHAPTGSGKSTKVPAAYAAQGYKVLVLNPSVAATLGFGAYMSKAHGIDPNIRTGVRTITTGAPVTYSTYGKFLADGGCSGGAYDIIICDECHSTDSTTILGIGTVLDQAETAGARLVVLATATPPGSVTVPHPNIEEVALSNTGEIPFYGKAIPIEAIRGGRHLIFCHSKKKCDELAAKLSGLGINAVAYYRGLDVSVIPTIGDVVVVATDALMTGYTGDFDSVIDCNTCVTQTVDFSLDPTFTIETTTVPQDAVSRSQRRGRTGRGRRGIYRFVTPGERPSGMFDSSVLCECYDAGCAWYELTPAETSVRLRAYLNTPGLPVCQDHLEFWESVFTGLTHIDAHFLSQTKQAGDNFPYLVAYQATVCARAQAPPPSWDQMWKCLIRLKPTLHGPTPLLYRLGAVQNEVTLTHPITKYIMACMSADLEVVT

| SMILES | IC50 [1] | other results |
| --- | --- | --- |
| O=C(O)Cc1c(C(=O)Cc2ccccc2)n(Cc2ccccc2)c2ccccc12 [Example 258] | 10 to 50 µM | – |
| O=C(O)Cc1c(Cc2ccc(-c3ccccc3)cc2)n(CC2CC2)c2ccccc12 [Example 278] | < 10 µM | – |
| CC1CCN(C(=O)Cc2cn(Cc3cccc(OCc4ccccc4)c3)c3ccc(OCc4ccccc4)cc23)C1 (centres unmarked) [Example 191] | 10 to 50 µM | – |
| CC(C)N(c1cccc(Cn2cc(CC(=O)O)c3ccccc32)c1)c1ccccc1Cl [Example 554] | < 10 µM | – |
| Nc1cc(-c2ccc3c(CC(=O)O)cn(Cc4csc5ccc(Cl)cc45)c3c2)ncn1 [Example 666] | – | IC50 [2]: 10 to 50 µM |
| CCOC(=O)Cc1cn(Cc2ccc(Oc3cccc(F)c3)cc2)c2cc(-c3cccc(OC(C)=O)c3)ccc12 [Example 603] | > 50 µM | – |
| O=C(O)Cc1cn(Cc2ccc(Oc3ccc(C(F)(F)F)cc3C(F)(F)F)cc2)c2ccccc12 [Example 591] | – | IC50 (Table 23, compounds made using Scheme 30): < 10 µM |
| Nc1cc(N)cc(-c2ccc3c(CC(=O)O)cn(Cc4ccccc4)c3c2)c1 [Example 676] | – | IC50 [3]: 10 to 50 µM |
| Nc1cc(N)cc(-c2ccc3c(CC(=O)O)cn(Cc4csc5cccc(Cl)c45)c3c2)c1 [Example 727] | – | IC50 [4]: < 10 µM |
| Cc1cc([N+](=O)[O-])ccc1N1CC(CC(=O)O)c2cc(Br)ccc21 (centres unmarked) [Example 395] | 10 to 50 µM | – |
| Cc1sc2ccc(Cl)cc2c1Cn1cc(CC(=O)O)c2ccc(Br)cc21 [Example 777] | – | IC50 [4]: 10 to 50 µM |
| O=C(O)Cc1cn(Cc2cccc(-c3ccccc3)c2)c2ccc(OCc3ccccc3)cc12 [Example 112] | < 10 µM | – |
| CN(c1ccc(Cn2cc(CC(=O)O)c3ccccc32)cc1)c1cc(C(F)(F)F)ccc1C(F)(F)F [Example 581] | – | IC50 [5]: < 10 µM |
| O=C(Cc1cn(Cc2cccc(OCc3ccccc3)c2)c2ccc(OCc3ccccc3)cc12)N1CCCC1 [Example 189] | 10 to 50 µM | – |
| CCOC(=O)Cc1cn(Cc2ccc(Oc3ccc(C(F)(F)F)cc3)cc2)c2cc(-c3cc(N)cc(N)c3)ccc12 [Example 608] | – | IC50 [6]: 10 to 50 µM |
| CN(c1cccc(Cn2cc(CC(=O)O)c3ccccc32)c1)c1c(F)cccc1F [Example 536] | 10 to 50 µM | – |
| O=C(OCc1ccccc1)C(Cc1ccccc1)c1cn(Cc2csc3ccc(Cl)cc23)c2cc(OCc3ccccc3)ccc12 (centres unmarked) [Example 350] | > 50 µM | – |
| CCOC(=O)C(=O)c1cn(-c2ccc([N+](=O)[O-])cc2C)c2ccc(Br)cc12 [Example 379] | 10 to 50 µM | – |
| CCOC(=O)Cc1cn(Cc2cccc3sc(Cl)nc23)c2cc(-c3cc([N+](=O)[O-])cc([N+](=O)[O-])c3)ccc12 [Example 793] | – | IC50 (Table 35, compounds made using Scheme 53): 10 to 50 µM |
| NC(=O)c1ccc(N)cc1-c1ccc2c(CC(=O)O)cn(Cc3csc4ccc(Cl)cc34)c2c1 [Example 641] | – | IC50 [7]: 10 to 50 µM |
| CCC(=O)Oc1cn(Cc2csc3ccc(Cl)cc23)c2cc(-c3ccccc3)ccc12 [Example 616] | – | IC50 (Table 26, compounds made using Scheme 33): > 50 µM |
| CCOC(=O)Cc1cn(Cc2ccc(Oc3cccc(OC)c3)cc2)c2cc(-c3cc(N)cc(N)c3)ccc12 [Example 610] | – | IC50 [6]: 10 to 50 µM |
| O=C(O)Cc1c(C(=O)c2cccc(-c3cc(Cl)cc(Cl)c3)c2)oc2ccccc12 [Example 244] | < 10 µM | – |
| O=C(O)Cc1cn(Cc2csc3cc(Cl)ccc23)c2cc(Br)ccc12 [Example 785] | – | IC50 [4]: > 50 µM |
| O=C(O)Cc1cn(Cc2csc3ccc(Cl)cc23)c2cc(-c3ccc(Cl)cc3)ccc12 [Example 753] | – | IC50 [8]: > 50 µM |
| Cc1cc([N+](=O)[O-])ccc1-n1cc(C(Cc2ccc(C(C)C)cc2)C(=O)O)c2cc(Br)ccc21 (centres unmarked) [Example 408] | 10 to 50 µM | – |

| SMILES | IC50 [1] | other results |
| --- | --- | --- |
| Cc1cc([N+](=O)[O-])ccc1-n1cc(C(=O)C(=O)N2CCCC2)c2cc(Br)ccc21 [Example 401] | > 50 µM | – |
| CC(C)c1ccc(CC(C(=O)O)c2cn(Cc3ccc(C(C)C)cc3)c3ccc(Br)cc23)cc1 (centres unmarked) [Example 685] | – | IC50 [3]: < 10 µM |
| CC(C)c1ccc(Cn2c(C(=O)NCc3ccc(S(C)(=O)=O)cc3)c(CC(=O)O)c3cc(Br)ccc32)cc1 [Example 443] | < 10 µM | – |
| Nc1ncc(C(=O)O)c(-c2ccc3c(CC(=O)O)cn(Cc4csc5ccc(Cl)cc45)c3c2)n1 [Example 621] | – | IC50 (Table 29, compounds made using Scheme 36): > 50 µM |
| CCOC(=O)Cc1cn(Cc2ccc(Oc3ccc(Cl)cc3)cc2)c2cc(-c3cc(N)cc(N)c3)ccc12 [Example 613] | – | IC50 [6]: 10 to 50 µM |
| O=C(O)Cc1cn(Cc2csc3ccc(Cl)cc23)c2cc(-c3ccc4nn[nH]c4c3)ccc12 [Example 669] | – | IC50 [2]: 10 to 50 µM |
| O=C(O)Cc1cn(Cc2cccc(Oc3ccccc3)c2)c2ccc(OCc3ccccc3)cc12 [Example 115] | < 10 µM | – |
| CCOC(=O)Cc1cn(Cc2ccc(Oc3cc(Cl)cc(Cl)c3)cc2)c2ccccc12 [Example 515] | < 10 µM | – |
| COC(=O)C(c1ccc([N+](=O)[O-])cc1C)C1CN(c2ccc([N+](=O)[O-])cc2C)c2ccc(Br)cc21 (centres unmarked) [Example 400] | 10 to 50 µM | – |
| Cc1cc([N+](=O)[O-])ccc1-n1ccc2cc(Br)ccc21 [Example 376] | > 50 µM | – |
| O=C(O)Cc1cn(Cc2csc3ccc(Cl)cc23)c2cc(-c3cccc(F)c3)ccc12 [Example 759] | – | IC50 [8]: > 50 µM |
| CN(c1ccc(F)cc1)c1ccc(Cn2cc(CC(=O)O)c3ccccc32)cc1 [Example 558] | – | IC50 [5]: 10 to 50 µM |
| COC(=O)C(c1ccc([N+](=O)[O-])cc1C)c1cn(-c2ccc([N+](=O)[O-])cc2C)c2ccc(Br)cc12 (centres unmarked) [Example 396] | < 10 µM | – |
| O=C(O)Cc1c(Cc2cccc(-c3cccc(Cl)c3Cl)c2)oc2ccccc12 [Example 307] | < 10 µM | – |
| Nn1c(=O)[nH]cc(-c2ccc3c(CC(=O)O)cn(Cc4csc5ccc(Cl)cc45)c3c2)c1=O [Example 652] | – | IC50 [7]: 10 to 50 µM |
| CC(CO)N(Cc1ccccc1)c1ccc(-n2cc(CC(=O)O)c3ccccc32)cc1 (centres unmarked) [Example 172] | < 10 µM | – |
| O=C(O)c1cccc2c1c1ccccc1n2Cc1ccccc1 [Example 465] | > 50 µM | – |
| COc1ccccc1-c1ccc2c(CC(=O)O)cn(Cc3csc4ccc(Cl)cc34)c2c1 [Example 747] | – | IC50 [8]: > 50 µM |
| COc1ccc(-c2cccc(Cc3[nH]c4ccccc4c3CC(=O)O)c2)cc1 [Example 299] | < 10 µM | – |
| CC(C)(C)OC(=O)N(c1cc(Cl)cc2c(Cn3cc(CC(=O)O)c4ccc(Br)cc43)csc12)C1CC1 [Example 773] | – | IC50 (Table 38, compounds made using Scheme 56, Scheme 57 and Scheme 61): > 50 µM |
| Cc1cc(-c2ccc(C(=O)c3[nH]c4ccccc4c3CC(=O)O)cc2)ccc1Cl [Example 261] | < 10 µM | – |
| O=C(O)Cc1c(C(=O)c2cccc(-c3cccc(Cl)c3)c2)[nH]c2ccccc12 [Example 232] | 10 to 50 µM | – |
| O=C(O)Cc1cn(Cc2csc3ccc(Cl)cc23)c2cc(-c3cccc(O)c3)ccc12 [Example 625] | – | IC50 [7]: < 10 µM |
| N#Cc1ccc(-c2ccc3c(CC(=O)O)cn(Cc4csc5ccc(Cl)cc45)c3c2)cc1 [Example 757] | – | IC50 [8]: 10 to 50 µM |
| Cc1cc([N+](=O)[O-])ccc1Cc1cn(-c2ccc([N+](=O)[O-])cc2C)c2ccc(Br)cc12 [Example 399] | 10 to 50 µM | – |

Further lines, with some results ahead:

| IC50 [1] | SMILES | other results |
| --- | --- | --- |
| 10 to 50 µM | O=C(O)Cc1c(C(=O)c2cccc(-c3ccccc3Cl)c2)[nH]c2ccccc12 [Example 234] | – |
| 10 to 50 µM | CCOC(=O)Cc1cn(Cc2ccc(Oc3ccc(C(F)(F)F)cc3)cc2)c2ccccc12 [Example 516] | – |
| 10 to 50 µM | N#Cc1ccnc(-n2cc(CP(=O)(O)O)c3cc(Br)ccc32)c1 [Example 316] | – |
| < 10 µM | CN(c1cccc(Cn2cc(CC(=O)O)c3ccccc32)c1)c1ccc(Cl)cc1Cl [Example 538] | – |
| 10 to 50 µM | O=C(O)Cc1cn(Cc2csc3ccc(F)cc23)c2ccccc12 [Example 133] | – |
| > 50 µM | COC(=O)C(NC(=O)c1c[nH]cn1)c1cn(Cc2ccc(C(C)C)cc2)c2ccccc12 (centres unmarked) [Example 421] | – |
| 10 to 50 µM | O=C(O)Cc1cn(Cc2csc3ccc(Cl)cc23)c2cc(N3CCCC(O)C3)ccc12 (centres unmarked) [Example 746] | – |
| 10 to 50 µM | COc1ccc2c(CC(=O)O)cn(Cc3csc4ccc(Cl)cc34)c2c1 [Example 345] | – |
| > 50 µM | COC(=O)C(Cc1ccccc1)c1cn(-c2ccc([N+](=O)[O-])cc2C)c2ccc(Br)cc12 (centres unmarked) [Example 397] | – |
| 10 to 50 µM | O=C(O)Cc1cn(Cc2csc3ccc(Cl)cc23)c2cc(Br)ccc12 [Example 359] | – |
| 10 to 50 µM | COc1ccccc1-c1ccc(Cc2[nH]c3ccccc3c2CC(=O)O)cc1 [Example 284] | – |
| 10 to 50 µM | O=C(Cc1cn(Cc2cccc(OCc3ccccc3)c2)c2ccc(OCc3ccccc3)cc12)NCC1CC1 [Example 190] | – |
| > 50 µM | CCOC(=O)Cc1cn(Cc2cccc(N(C)c3ccc(Cl)c(Cl)c3)c2)c2ccccc12 [Example 550] | – |
| > 50 µM | CCOC(=O)Cc1cn(Cc2ccc(Oc3cccc(Cl)c3)cc2)c2cc(-c3cccc(OC(C)=O)c3)ccc12 [Example 601] | – |
| 10 to 50 µM | O=C(O)Cc1c(C(=O)c2ccc(-c3cccc(Cl)c3)cc2)[nH]c2ccccc12 [Example 253] | – |
| 10 to 50 µM | O=C(Cc1cn(Cc2csc3ccc(Cl)cc23)c2ccccc12)NS(=O)(=O)C1CC1 [Example 198] | – |
| 10 to 50 µM | COc1cccc(-c2cccc(C(=O)c3[nH]c4ccccc4c3CC(=O)O)c2)c1 [Example 229] | – |
| < 10 µM | O=C(O)Cc1cn(Cc2ccc(Oc3ccc(F)cc3)cc2)c2ccccc12 [Example 495] | – |
| < 10 µM | CC(C)c1ccc(Cn2c(C(=O)Nc3ccccc3)c(CC(=O)O)c3cc(Br)ccc32)cc1 [Example 456] | – |
| 10 to 50 µM | CC(=O)Nc1ccc(-c2ccc(Cc3[nH]c4ccccc4c3CC(=O)O)cc2)cc1 [Example 292] | – |
